Measurements taken from publication PMC6756013, “B591, a novel specific pan-PI3K inhibitor, preferentially targets cancer stem cells” (Oncogene, 2019).

Assays:
[1] = system: lung metastasis of 4T1 cells; test: Breast cancer metastasis study; format: in vivo, NOD/SCID mice; details: 8 mg/kg intraperitoneally once a day
Protocol: Studies implicated that the process termed EMT is associated with features of CSCs, which are considered to be involved in metastasis, a major cause of cancer-associated deaths. 4T1 murine mammary carcinoma cells spontaneously produce highly metastatic tumors that can metastasize to the lung, liver, lymph nodes, and brain while the primary tumor is growing in situ. To determine the efficacy of B591 on tumor metastasis, the metastasis model was established by incubating 4T1 cells into the mammary gland of NOD/SCID mice and treated with 8 mg/kg of B591 intraperitoneally once a day. B591 decreased more than 50% of the metastatic tumors in the lung which spontaneously metastasize from the primary tumor in the mammary gland (Fig. 6a).
To establish the metastasis model, 3 × 10^5 of 4T1 cells were incubated into the mammary fat pad of NOD/SCID mice. When tumor volume reached about 50 mm^3, mice were randomly divided into two groups for treatment with 8 mg/kg of B591 or vehicle (i.p.) for 2 months. The metastatic tumors in lung were stained with ink as previously reported.

[2] = system: eIF4E [nuc:cyto] ratio in SMMC7721, HepG2, MCF7, MDA-MB-231 and A549 cells; test: Immunofluorescence and high content assay of eIF4E localization; format: cell-based; details: 5 h, five human cancer cell lines
Excerpt: The mRNA 5′ cap-binding protein eukaryotic initiation factor 4E (eIF4E) is a key regulator of cap-dependent translation initiation in the cytoplasm. Elevated level of eIF4E has been implicated in oncogenic transformation and tumorigenesis. The availability of eIF4E is tightly controlled through regulated interaction with 4E-BPs. eIF4E is predominantly cytoplasmic in mammalian cells, whereas serum-starvation and/or rapamycin-treatment: conditions that suppress mTOR signaling induces an accumulation of eIF4E within the nucleus. By using immunofluorescence assay, we assessed the effect of B591 on eIF4E subcellular localization of eIF4E. […] Further, five human cancer cell lines (SMMC7721, HepG2, MCF7, MDA-MB-231, and A549) were respectively treated with different concentrations of B591 for 5 h and eIF4E [nuc:cyto] ratios were determined by a high content assay using Thermo Scientific Cellomics ArrayScan VTI HCS.
Cells were seeded in 96-well plates (5,000 cells/well) and treated with DMSO or B591 for 5 h. Cells were then fixed with 4 % paraformaldehyde and followed by permeabilization with 0.1% triton X-100 and blocking in 2% bovine serum albumin in PBS. […] The subcellular location of eIF4E and the eIF4E nuclear–cytoplasmic intensity of each field per well was monitored and analyzed by using ArrayScan® VTI HCS Reader according to manufacturer’s instruction.

[3] = system: PI3K/Akt/mTORC1 and mTORC2 signaling in multiple cancer cell lines; test: Western blot of PI3K downstream effectors in multiple tumor cell lines; format: cell-based; details: 5 h
Protocol: Fig. 2 B591 inhibits PI3K/Akt pathway in multiple cancer cell lines. a Representative images of Akt1 redistribution in IGF-1-treated cells in the absence or presence of B591. Scale bar represents 10 μm. Arrows indicate IGF-1-mediated membrane translocation detected by the image analysis algorithm. b Inhibition of mTORC1 and mTORC2 signaling in multiple cancer cell lines, exposed for 5 h to increasing concentrations of B591. c HepG2 cells were treated with DMSO or 20 μM of B591 for 5 h. Immunofluorescence (red) intensity reflects eIF4E subcellular distribution. Cells were visualized with high content reader. Representative images are shown, and scale bar represents 50 μm. d Nuclear-to-cytoplasmic ratio of eIF4E in five cancer cell lines was determined via high content reader. e The phosphorylation of AKT and ERK was determined by immunoblotting in RD cells in the presence of 10 μM of B591 after indicated time of exposure. f Inhibition of the phosphorylation of AKT and ERK in RD cells treated with B591, PI-103 or Rapamycin for 24 h was determined by immunoblotting
The key effectors downstream of PI3K were examined by western blot analysis in multiple tumor cell lines with different genetic background. […] Most recent study identified PtdIns(3,4,5)P3, which is generated by activated PI3K, as a direct upstream activator for mTORC2, highlighting the critical role of PI3K in mTORC2 activation. Therefore, the effect of B591 on mTORC2 signaling was evaluated by testing the phosphorylation levels of Akt at Ser473 and its substrate GSK3β at Ser9.

`Cc1cc2c(cc1C)[n+](Cc1ccccc1Br)cn2Cc1ccc2c(c1)CCO2.[Br-]` [B591, 3-(2-bromobenzyl)-1-((2,3-dihydrobenzofuran-5-yl)methyl) -5,6-dimethyl-1H-benzo[d]imidazol-3-ium bromide] was tested, and the “Decrease of metastatic tumors in the lung” value [1] was “more than 50%”, the “eIF4E [nuc:cyto] ratio” value [2] was “increased eIF4E [nuc:cyto] ratios in all the five cancer cells in a dose-dependent manner” and the “PI3K/Akt/mTORC1 signaling (phosphorylation of 4E-BP1, S6K1, S6)” value [3] was “effectively inhibited PI3K/Akt/mTORC1 signaling”. For the same compound, the “mTORC2 signaling: p-Akt (Ser473) and p-GSK3β (Ser9)” value ([3]; all tested cell types) was “concentration-dependent decrease” and the “Phosphorylation of Akt at Thr308” value ([3]; increasing concentrations) was “potently inhibited”.
